The text below walks through data of ChEMBL document CHEMBL4020785, “Switching subtype-selectivity: Fragment replacement strategy affords novel class of peroxisome proliferator-activated receptor α/δ (PPARα/δ) dual agonists” (Bioorg Med Chem Lett, 2017).

Assay [1] has as its target T1, Peroxisome proliferator-activated receptor delta (Homo sapiens) (UniProt Q03181).
T1 sequence (whole entry): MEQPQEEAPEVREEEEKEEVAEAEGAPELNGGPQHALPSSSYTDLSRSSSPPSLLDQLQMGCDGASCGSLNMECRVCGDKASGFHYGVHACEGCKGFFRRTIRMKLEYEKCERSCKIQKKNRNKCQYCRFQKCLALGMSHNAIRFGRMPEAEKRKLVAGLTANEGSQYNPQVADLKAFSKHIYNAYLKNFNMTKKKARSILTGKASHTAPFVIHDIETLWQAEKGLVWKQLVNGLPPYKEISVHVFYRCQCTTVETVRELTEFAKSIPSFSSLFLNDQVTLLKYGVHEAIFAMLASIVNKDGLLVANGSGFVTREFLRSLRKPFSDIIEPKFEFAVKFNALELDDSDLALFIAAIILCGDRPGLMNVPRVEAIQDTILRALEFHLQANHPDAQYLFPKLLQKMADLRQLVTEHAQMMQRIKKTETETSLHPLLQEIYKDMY
Description: Agonist activity at GAL4N fused human PPARdelta LBD expressed in HEK293 cells co-expressing TK-MH100x4-Luc at 50 uM after 24 hrs by luciferase reporter gene assay relative to control. It is filed as cell-based. (In general: A reporter such as luciferase makes a cellular process visible.)

Assay [2] addresses T2, Peroxisome proliferator-activated receptor gamma (Homo sapiens, UniProt P37231).
T2 sequence (P37231 whole entry): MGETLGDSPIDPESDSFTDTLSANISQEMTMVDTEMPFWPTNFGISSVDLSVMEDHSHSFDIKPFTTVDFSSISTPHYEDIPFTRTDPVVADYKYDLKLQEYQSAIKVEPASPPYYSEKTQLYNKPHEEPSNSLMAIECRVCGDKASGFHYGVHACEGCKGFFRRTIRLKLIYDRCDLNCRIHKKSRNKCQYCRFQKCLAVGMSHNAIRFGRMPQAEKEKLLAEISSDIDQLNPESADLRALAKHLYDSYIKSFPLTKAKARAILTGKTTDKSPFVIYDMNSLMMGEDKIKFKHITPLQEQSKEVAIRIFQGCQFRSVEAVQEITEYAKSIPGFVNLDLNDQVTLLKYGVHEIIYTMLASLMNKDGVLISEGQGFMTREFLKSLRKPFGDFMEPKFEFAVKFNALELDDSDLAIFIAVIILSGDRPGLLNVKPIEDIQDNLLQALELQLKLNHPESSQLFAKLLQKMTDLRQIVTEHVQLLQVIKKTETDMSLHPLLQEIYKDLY
Description: Agonist activity at GAL4N fused human PPARgamma LBD expressed in HEK293 cells co-expressing TK-MH100x4-Luc after 24 hrs by luciferase reporter gene assay. The class given is cell-based.

The target of assay [3] is T3, Peroxisome proliferator-activated receptor alpha (Homo sapiens, UniProt Q07869).
T3 sequence (Q07869 whole entry): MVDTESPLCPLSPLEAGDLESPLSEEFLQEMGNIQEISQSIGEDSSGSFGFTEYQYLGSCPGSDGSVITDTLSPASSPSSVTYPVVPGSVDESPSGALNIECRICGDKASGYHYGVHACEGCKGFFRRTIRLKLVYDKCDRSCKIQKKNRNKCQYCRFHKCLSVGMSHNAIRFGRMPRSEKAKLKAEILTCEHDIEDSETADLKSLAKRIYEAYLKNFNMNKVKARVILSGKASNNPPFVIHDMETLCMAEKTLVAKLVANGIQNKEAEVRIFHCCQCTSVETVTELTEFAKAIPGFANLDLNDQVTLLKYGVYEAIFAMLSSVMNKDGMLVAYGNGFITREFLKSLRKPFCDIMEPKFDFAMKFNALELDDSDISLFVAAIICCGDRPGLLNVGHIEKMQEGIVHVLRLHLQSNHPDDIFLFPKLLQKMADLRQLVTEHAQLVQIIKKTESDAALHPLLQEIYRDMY
Description: Agonist activity at GAL4N fused human PPARalpha LBD expressed in HEK293 cells co-expressing TK-MH100x4-Luc after 24 hrs by luciferase reporter gene assay. The class given is cell-based.

Assay [4] deals with T4, Peroxisome proliferator-activated receptor alpha (Homo sapiens) (UniProt Q07869).
T4 sequence (whole entry): T3 sequence (Q07869 whole entry)
Nature of the assay: Agonist activity at GAL4N fused human PPARalpha LBD expressed in HEK293 cells co-expressing TK-MH100x4-Luc after 24 hrs by luciferase reporter gene assay relative to GW7647. The class given is cell-based.

In assay [5] the target is T5, Peroxisome proliferator-activated receptor alpha (Mus musculus, UniProt P23204).
T5 sequence (P23204 whole entry): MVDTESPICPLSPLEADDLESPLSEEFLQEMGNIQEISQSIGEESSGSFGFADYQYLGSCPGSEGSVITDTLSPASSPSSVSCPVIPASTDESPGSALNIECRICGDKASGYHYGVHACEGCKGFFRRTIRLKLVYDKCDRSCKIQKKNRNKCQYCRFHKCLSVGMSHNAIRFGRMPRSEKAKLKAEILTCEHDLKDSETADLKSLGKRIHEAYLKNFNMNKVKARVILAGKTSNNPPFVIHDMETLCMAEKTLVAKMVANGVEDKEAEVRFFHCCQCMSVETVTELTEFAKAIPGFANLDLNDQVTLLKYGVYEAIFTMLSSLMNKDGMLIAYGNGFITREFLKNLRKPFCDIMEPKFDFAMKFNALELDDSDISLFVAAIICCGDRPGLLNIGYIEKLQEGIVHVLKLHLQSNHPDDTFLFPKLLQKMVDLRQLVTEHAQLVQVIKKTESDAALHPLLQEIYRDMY
Nature of the assay: Agonist activity at 3' GAL4 DNA binding domain fused mouse PPARalpha LBD expressed in U-2 OS cells after 40 hrs by luciferase reporter gene assay. The class given is cell-based.

For assay [6], the target named is T6, Peroxisome proliferator-activated receptor gamma (Homo sapiens) (UniProt P37231).
T6 sequence (whole entry): T2 sequence (P37231 whole entry)
Description: Agonist activity at GAL4N fused human PPARgamma LBD expressed in HEK293 cells co-expressing TK-MH100x4-Luc after 24 hrs by luciferase reporter gene assay relative to rosiglitazone. It is filed as cell-based.

Assay [7] deals with T4, Peroxisome proliferator-activated receptor alpha (Homo sapiens). Nature of the assay: Agonist activity at GAL4N fused human PPARalpha LBD expressed in HEK293 cells co-expressing TK-MH100x4-Luc at less than 30 uM after 24 hrs by luciferase reporter gene assay. It is filed as cell-based.
Assay [8] addresses T6, Peroxisome proliferator-activated receptor gamma (Homo sapiens). Nature of the assay: Agonist activity at GAL4N fused human PPARgamma LBD expressed in HEK293 cells co-expressing TK-MH100x4-Luc at less than 30 uM after 24 hrs by luciferase reporter gene assay. It is filed as cell-based.
Assay [9] deals with T1, Peroxisome proliferator-activated receptor delta (Homo sapiens). Nature of the assay: Agonist activity at GAL4N fused human PPARdelta LBD expressed in HEK293 cells co-expressing TK-MH100x4-Luc at less than 30 uM after 24 hrs by luciferase reporter gene assay. The class given is cell-based.
Assay [10] shares this target. Nature of the assay: Agonist activity at GAL4N fused human PPARdelta LBD expressed in HEK293 cells co-expressing TK-MH100x4-Luc after 24 hrs by luciferase reporter gene assay relative to GW501516. The class given is cell-based.
The target in assay [11] is T7, Peroxisome proliferator-activated receptor delta (Homo sapiens, UniProt Q03181).
T7 sequence (Q03181 whole entry): T1 sequence (whole entry)
Nature of the assay: Agonist activity at GAL4N fused human PPARdelta LBD expressed in HEK293 cells co-expressing TK-MH100x4-Luc after 24 hrs by luciferase reporter gene assay. The class given is cell-based.

The target in assay [12] is T3, Peroxisome proliferator-activated receptor alpha.

Each structure is given as a SMILES string. The source made the active and inactive calls. No cut-off for these calls is given here.

In general, EC50 refers to the concentration that produces a half-maximal response. Lower therefore signals greater potency. Regarding `CCO[C@@H](Cc1ccc(OCCc2ccc(OS(C)(=O)=O)cc2)cc1)C(=O)O` [TESAGLITAZAR], the values for the Efficacy in assay [1], in [4] and in [6] were 38%, 122 to 186% and 119 to 130%, respectively. In addition, the EC50 turned out to be 0.36 µM in [2], 3800 nM in assay [3] and 1700 nM in assay [5].

As for `CC(=O)N[C@H](C)c1nc(-c2ccc(OCCc3ccc(OS(C)(=O)=O)cc3)cc2)no1`, the result in assay [7], in assay [8] and in assay [9] was inactive.

Turning to `CC(=O)NC(C)c1nc(-c2ccc(OCCCOc3ccc(Oc4ccccc4)cc3)cc2)no1` (stereo unspecified), the Efficacy in [10] lay within 2 to 11%; in assay [4], 17 to 27%. Also, the result in [8] was inactive. Moreover, the results for the half-maximal effective concentration (EC50) in [3] and in assay [11] were 240 nM and 320 nM, respectively.

In the case of `CC(=O)NC(C)c1nc(-c2ccc(OCCc3ccc(OS(C)(=O)=O)cc3)cc2)no1` (stereo unspecified), the Efficacy fell in the range of 7 to 18% in assay [10] and 13 to 37% in assay [4]. Besides, in assay [8], the outcome was inactive. Moreover, the figures for the EC50 in assay [3] and in [11] were 1200 nM and 1600 nM, respectively.

For the molecule `CC(=O)NC(C)c1nc(-c2ccc(OCCN3c4ccccc4Oc4ccccc43)cc2)no1` (stereo unspecified), the figures for the Efficacy in assay [10] and in assay [4] were 2 to 9% and 7 to 17%, respectively. Besides, in assay [8], the result was inactive. The EC50 was 470 nM in assay [3] and 450 nM in assay [11].

With `CCO[C@@H](Cc1ccc(OCCN2c3ccccc3Oc3ccccc32)cc1)C(=O)O` [RAGAGLITAZAR], the midpoint of the response in assay [12], the EC50, lay at 2800 nM.

`CC(=O)N[C@@H](C)c1nc(-c2ccc(OCCc3ccc(OS(C)(=O)=O)cc3)cc2)no1`: the values for the Efficacy in assay [10] and in assay [4] were 4 to 19% and 13 to 33%, respectively. The result in [8] was inactive. Besides, the values for the EC50 in assay [3] and in [11] were 450 nM and 990 nM, respectively.

On to `CC(=O)NC(C)c1nc(-c2ccc(OCC=C(c3ccc(Br)cc3)c3ccc(Br)cc3)cc2)no1` (stereo unspecified), for which the results for the Efficacy in [10] and in assay [4] were 5 to 14% and 3 to 15%, respectively. In assay [8], the outcome was inactive. For the same molecule, the EC50 in [3] is 880 nM; in [11], 970 nM.

As for `CCOC(Cc1ccc(Oc2ccc(OCc3ccccc3)cc2)cc1)C(=O)O` (stereo unspecified), the values for the Efficacy in assay [10], in assay [4] and in [6] were 16 to 45%, 87 to 129% and 39 to 51%, respectively. Also, the 50% effective concentration (EC50) was 18 µM in assay [2], 5400 nM in assay [3] and 31000 nM in assay [11].
